Source: patent US20260001864A1, “COMPOUND CONTAINING SULFAMIDE STRUCTURE, AND PREPARATION METHOD THEREFOR AND APPLICATION THEREOF, AND PHARMACEUTICAL COMPOSITION AND APPLICATION” (Nanjing Shuohui Pharmatechnology Co., Ltd, priority 2021, published 2026)
Like-named read-outs stand apart in the source and are kept apart here.

Key:
[1] = molecular target: H+/K+-ATPase (rabbit gastric mucosal microsomes) (Oryctolagus cuniculus (Rabbit), UniProt P27112); assay: In vitro screening test of H+/K+-ATPase inhibition (malachite green); assay type: biochemical; settings: pH 6.5, 37° C. 30 min, read-out: IC50, inhibitory effect on H+/K+-ATPase activity
From the text: This test example evaluates the inhibitory effects of the compounds of the present invention on the activity of H+/K+-ATPase by an in vitro screening test, and expresses them with the IC50 values of the compounds (obtained by calculating the inhibition rates at different concentrations).
• Compound solutions: The products (i.e., the compounds or the hydrochloride salt of compounds) obtained in the foregoing preparation examples of the present invention were each independently dissolved in DMSO to form solutions at suitable concentrations; • Buffer I: 50 mmol/L HEPEs-Tris, pH=6.5, 5 mmol/L magnesium chloride, […] valinomycin (J&K Scientific Ltd., goods No.: 227304); • Buffer II: 50 mmol/L HEPEs-Tris, pH=6.5, 5 mmol/L magnesium chloride, […] valinomycin, 5 mmol/L potassium chloride; • 5-adenosine triphosphate (ATP, Sigma-Aldrich, goods No.: A2383) solution: Dilute ATP with buffer I to 5 mM; • Malachite green solution: Dissolve 0.12 wt % malachite green (J&K Scientific Ltd., goods No.: 913120) in 2.5 mol/L sulfuric acid, 7.5 wt % ammonium molybdate (J&K Scientific Ltd., goods No.: 128321) and 11% Tween 20(V/V). During use, sulfuric acid, ammonium molybdate and Tween 20 are mixed in a ratio of 100:25:2; • Rabbit gastric mucosal microsomes (rich in H+/K+-ATPase, self-extracted), extracted by sucrose gradient centrifugation: The rabbit stomach was washed with tap water and 3M NaCl solution, respectively, and then the surface water was removed with filter paper. A pre-cooled homogenization buffer (4 ml/g tissue) was added and homogenized for 2-5 min in a tissue homogenizer. After the homogenizing, if there are large tissue particles, they can be removed by centrifugation (600 g, 10 min). The supernatant was then transferred to a clean centrifuge tube and centrifuged at 20,000 g for 30 min, then the supernatant was transferred to a clean centrifuge tube and further centrifuged at 100,000 g for 90 min and the precipitate was collected; the precipitate was suspended in homogenate and blown evenly, and the protein concentration was measured by the Bradford's method and adjusted to 10 mg/ml; 7.5 wt % Ficoll's layering solution was added in equal proportions. After centrifugation at 100,000 g for 60 min, the middle layer (H^+/K^+-ATPase-enriched gastric membranes) was collected in a clean centrifuge tube, diluted with homogenate by 4-5 times, and then centrifuged at 100,000 g for another 90 min, and the precipitate was collected; the precipitate was suspended in homogenate and homogenized in a glass homogenizer, and the protein concentration was measured by the Bradford's method and adjusted to 22.5 mg/ml. It was frozen at −80° C. and stored for future use.
5 μL of rabbit gastric mucosal microsomes (H^+/K^+-ATPase) was added to 45 μL of buffer II, then 5 μL of compound solution was added, and then 5 μL of 5 mM ATP solution was added to start the reaction and pre-react at 37° C. for 30 min. 15 μL of malachite green solution was added to terminate the reaction, balancing was conducted at room temperature for 20 min, and read the optical absorbance at 620 nm.
Meanwhile, the reaction of the same volume was carried out without addition of potassium chloride as a background, which was subtracted when calculating enzymatic activity.

[2] = tested on: histamine-induced gastric acid secretion; assay: Inhibition of histamine-induced gastric acid secretion in rats (pylorus ligation); assay type: in vivo, rat; settings: SD rats, total acid over 3 h after histamine
Protocol: 70 SPF-level SD rats with a weight of 180-220 g (Hangzhou Medical College (produced)), randomly grouped by weight, including negative control groups (isovolumetric saline) and model control groups (isovolumetric saline), and compounds obtained in the foregoing preparation examples of the present invention (i.e., compounds or compound hydrochlorides) (2 mg/kg or 4 mg/kg), 10 rats each group, including 5 males and 5 females. The rats were fasted, but were allowed to drink water for 24 h. After 24 h, the rats were given the compound at 1 ml/100 g by gavage, once in each group, and the rats in the negative control groups and the model groups were given an equal volume of saline by gavage. After that, the rats were anesthetized with chloral hydrate 300 mg/kg (1 ml/100 g) and fixed on a rat plate, and the abdominal wall was incised along the abdominal midline from the subxiphoid process of the sternum, and the incision was approximately 2-3 cm and was made on the left costal margin, and the stomach was exposed to the incision by gently pushing it with the fingers upwards. The pylorus was ligated with a thread under the pylorus (other neighboring vessels were not ligated), and the abdominal wall incision was sutured. The animals were given histamine dihydrochloride (30 mg/10 ml/kg) subcutaneously after 1 h of gavage of the test compound or saline. After 3 h of histamine administration, the rats were asphyxiated with excess CO2, stomachs were removed, stomach contents were collected and centrifuged at 3000 rpm/min for 10 min, and the acid solution was titrated with 0.1 mol/L NaOH to pH7.0. The total acidity and acid inhibition rate during the 3 h period were calculated.
Acid inhibition rate (%)=(Total acid in the model group−total acid in the test group)/total acid in the model group×100%

[3] = Rat tissue distribution test (oral, LC-MS-MS); assay type: in vivo; set-up: Hepatic drug concentration: unit not given here; settings: for Exposure level (0-4 h): male SD rats; for Exposure level (0-4 h) / Hepatic drug concentration: oral 4 mg/kg; for Kp: male, SD, plasma set to 1, oral 4 mg/kg, read-out: Ratio of exposure level; for Kp / Hepatic drug concentration: rat
Protocol: Three healthy male SD rats (body weight range 220-250 g, Zhejiang Charles River) were taken and assigned into one group (n=3). Compound 48, Compound A9 or comparison compound Vonoprazan were administered orally at a dose of 4 mg/kg.
Solvent for preparing pharmaceutical preparations: Pure water. The rats were fasted 4 h prior to the administration. […] The tissue was homogenized, and the corresponding blank tissue was used for preparation of a calibration curve and QC quantification. Blood samples should be centrifuged to extract plasma within 1 hour of collection and kept on crushed ice prior to the centrifugation. Plasma samples obtained by centrifugation were stored in a freezer until analysis. Centrifugation conditions: 4-10° C., 8000 rpm, 6 min. The concentration of the sample was determined by LC-MS-MS (MS03: Shimadzu LC30AD and API 4000)), and the exposure data were calculated by WINNOLIN software.

H+/K+-ATPase (rabbit gastric mucosal microsomes), sequence (P27112 whole entry): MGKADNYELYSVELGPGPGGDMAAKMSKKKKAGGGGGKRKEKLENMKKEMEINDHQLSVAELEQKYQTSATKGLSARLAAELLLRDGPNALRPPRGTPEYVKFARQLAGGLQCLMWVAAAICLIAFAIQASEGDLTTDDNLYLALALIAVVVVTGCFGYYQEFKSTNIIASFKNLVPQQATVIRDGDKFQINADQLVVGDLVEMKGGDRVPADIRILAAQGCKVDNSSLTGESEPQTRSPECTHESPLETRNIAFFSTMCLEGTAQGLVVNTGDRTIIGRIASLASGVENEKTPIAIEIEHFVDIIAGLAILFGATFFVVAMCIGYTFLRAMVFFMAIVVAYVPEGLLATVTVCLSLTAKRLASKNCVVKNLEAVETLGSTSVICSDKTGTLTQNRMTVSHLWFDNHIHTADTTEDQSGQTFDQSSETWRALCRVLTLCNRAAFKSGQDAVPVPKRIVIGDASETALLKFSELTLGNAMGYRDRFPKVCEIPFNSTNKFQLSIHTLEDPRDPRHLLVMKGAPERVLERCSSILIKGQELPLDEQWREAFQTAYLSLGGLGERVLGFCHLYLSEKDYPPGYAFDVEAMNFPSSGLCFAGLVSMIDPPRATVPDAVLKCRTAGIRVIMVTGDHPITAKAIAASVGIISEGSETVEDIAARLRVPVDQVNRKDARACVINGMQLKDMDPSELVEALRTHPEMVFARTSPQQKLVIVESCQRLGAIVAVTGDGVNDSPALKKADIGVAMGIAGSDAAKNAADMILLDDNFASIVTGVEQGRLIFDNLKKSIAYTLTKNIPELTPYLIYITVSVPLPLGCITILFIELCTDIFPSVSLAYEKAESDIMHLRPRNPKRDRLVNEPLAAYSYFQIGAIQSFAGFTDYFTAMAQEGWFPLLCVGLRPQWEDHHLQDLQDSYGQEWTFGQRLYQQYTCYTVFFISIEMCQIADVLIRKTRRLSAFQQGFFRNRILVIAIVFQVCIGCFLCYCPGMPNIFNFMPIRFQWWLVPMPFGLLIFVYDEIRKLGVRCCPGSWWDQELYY
H+/K+-ATPase (rabbit gastric mucosal microsomes), sequence (P18597 whole entry partner): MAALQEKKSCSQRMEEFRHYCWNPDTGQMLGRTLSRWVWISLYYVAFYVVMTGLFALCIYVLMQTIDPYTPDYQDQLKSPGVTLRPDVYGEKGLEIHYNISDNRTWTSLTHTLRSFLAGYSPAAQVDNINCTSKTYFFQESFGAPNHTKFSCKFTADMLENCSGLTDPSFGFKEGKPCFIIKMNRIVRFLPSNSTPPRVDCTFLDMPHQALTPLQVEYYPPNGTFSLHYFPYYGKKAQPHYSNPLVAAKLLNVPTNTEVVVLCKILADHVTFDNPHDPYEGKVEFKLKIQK

## CNCc1cn(S(=O)(=O)c2cccnc2)c(-c2ccc(OCC3CC3)cc2F)c1OC [Compound 48, 1-(5-(4-(cyclopropylmethoxy)-2-fluorophenyl)-4-methoxy-1-(pyridin-3-ylsulfonyl)-1H-pyrrolo-3-yl)-N-methylmethylamine]
[1]
  IC50: 36 nM
[2]; 2 mg/kg by gavage
  Acid inhibition rate: 75%
[2]; 4 mg/kg by gavage
  Acid inhibition rate: 86%
[3]; liver
  Exposure level (0-4 h): 7585.5 ng·h/mL
  Kp: 88.4
[3]; plasma
  Kp: 1
  Exposure level (0-4 h): 85.8 ng·h/mL
[3]; stomach
  Kp: 171
  Exposure level (0-4 h): 14693.7 ng·h/mL

## CNCc1cc(-c2ccc(OCc3cccnc3F)cc2F)n(S(=O)(=O)c2cccnc2)c1 [Compound A1]
[1]
  IC50: 66.7 nM
[2]; 2 mg/kg by gavage
  Acid inhibition rate: 68%

## CNCc1cc(-c2ccc(OCc3cnn(C)c3)cc2F)n(S(=O)(=O)c2cccnc2)c1 [Compound A3]
[1]
  IC50: 51.6 nM
[2]; 2 mg/kg by gavage
  Acid inhibition rate: 65%

## CNCc1cc(-c2ccc(OCc3ccn(C)n3)cc2F)n(S(=O)(=O)c2cccnc2)c1 [Compound A8]
[1]
  IC50: 18.4 nM
[2]; 2 mg/kg by gavage
  Acid inhibition rate: 58%

## CNCc1cc(-c2ccc(OCC3CC3(F)F)cc2F)n(S(=O)(=O)c2cccnc2)c1 (centres unmarked) [Compound A10]
[1]
  IC50: 27.7 nM
[2]; 2 mg/kg by gavage
  Acid inhibition rate: 81%
[2]; 4 mg/kg by gavage
  Acid inhibition rate: 87%

## CNCc1cc(-c2ccc(OCC3CO3)cc2F)n(S(=O)(=O)c2cccnc2)c1 (centres unmarked) [Compound A11]
[1]
  IC50: 14.1 nM
[2]; 2 mg/kg by gavage
  Acid inhibition rate: 81%

## CNCc1cc(-c2ccc(OCC3COC3)cc2F)n(S(=O)(=O)c2cccnc2)c1 [Compound A12]
[1]
  IC50: 119 nM
[2]; 2 mg/kg by gavage
  Acid inhibition rate: 63%

## CNCc1cc(-c2ccc(OCC3CCOC3)cc2F)n(S(=O)(=O)c2cccnc2)c1 (centres unmarked) [Compound A13]
[1]
  IC50: 128 nM
[2]; 2 mg/kg by gavage
  Acid inhibition rate: 60%

## CNCc1cc(-c2ccccc2F)n(S(=O)(=O)c2cccnc2)c1 [Vonoprazan, reference compound]
[3]; liver, 15 min
  Hepatic drug concentration: 9919
[3]; liver, 1 h
  Hepatic drug concentration: 1192
[3]; liver, 2 h
  Hepatic drug concentration: 632
[3]; liver, 4 h
  Hepatic drug concentration: 162
[3]; liver, 24 h
  Hepatic drug concentration: 23.7
